The results in this text go back to PubChem BioAssay AID256 (DTP/NCI, 2004).

Values joined by “and” are separate entries in the source; they are usually repeats but may differ in a detail not shown here. Equal values may be shown once. Inconclusive results and toxic doses are left out.

This test has as its system CD2F1 mice, L1210 leukemia ip, survival T/C. Kind of test: NCI In Vivo Anticancer Drug Screen. Data for tumor model L1210 Leukemia (intraperitoneal) in CD2F1 (CDF1) mice. The conditions noted are these: endpoint: mean survival time, higher = longer survival. Summed up: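 Ratio T/C, where T is the treated-group value and C the vehicle-dosed control value, from mice implanted with a transplantable tumor.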

The mark [1] stands for this setting: dose: 100.0 mg/kg/injection, schedule: Q01DX009 (ip), vehicle: saline with Tween-80.
[2] abbreviates: dose: 25.0 mg/kg/injection, schedule: Q04DX003 (ip), vehicle: saline.
Where [3] appears, read: dose: 50.0 mg/kg/injection, schedule: Q04DX003 (ip), vehicle: saline.
Setting [4] is: dose: 200.0 mg/kg/injection, schedule: Q01DX009 (ip), vehicle: saline with Tween-80.
Where [5] appears, read: dose: 400.0 mg/kg/injection, schedule: Q01DX009 (ip), vehicle: saline with Tween-80.

On to `CCOc1ccc(NC(=O)C2CCC(C)(C(=O)O)C2(C)C)cc1` (stereo not drawn), for which the T/C reads like this: (dose: 25.0 mg/kg/injection, schedule: Q01DX009 (ip), vehicle: saline with Tween-80) 102 % of control; (dose: 25.0 mg/kg/injection, schedule: Q04DX003 (ip), vehicle: saline with Tween-80) 98 % of control; (dose: 50.0 mg/kg/injection, schedule: Q01DX009 (ip), vehicle: saline with Tween-80) 98 % of control; (dose: 50.0 mg/kg/injection, schedule: Q04DX003 (ip), vehicle: saline with Tween-80) 100 % of control; under setting [1], 95 % of control; (dose: 100.0 mg/kg/injection, schedule: Q04DX003 (ip), vehicle: saline with Tween-80) 96 % of control and 98 % of control.
As to `Nc1cc(=O)[nH]c(=S)[nH]1.[Pt]`, the T/C is 105 % of control (dose: 3.13 mg/kg/injection, schedule: Q04DX003 (ip), vehicle: distilled water + Tween-80); 100 % of control (dose: 6.25 mg/kg/injection, schedule: Q04DX003 (ip), vehicle: distilled water + Tween-80); 101 % of control (dose: 12.5 mg/kg/injection, schedule: Q04DX003 (ip), vehicle: distilled water + Tween-80); 103 % of control (dose: 25.0 mg/kg/injection, schedule: Q04DX003 (ip), vehicle: distilled water + Tween-80); 101 % of control (dose: 50.0 mg/kg/injection, schedule: Q04DX003 (ip), vehicle: distilled water + Tween-80); 99 % of control (dose: 100.0 mg/kg/injection, schedule: Q04DX003 (ip), vehicle: distilled water + Tween-80). In addition, the T/C (dose: 200.0 mg/kg/injection, schedule: Q04DX003 (ip), vehicle: distilled water + Tween-80) is 94 % of control.
For the compound `c1cc(-n2nnc3cnccc32)ccn1`, the T/C by setting is: under setting [2], 102 % of control; under setting [3], 104 % of control.
For `CN(N=O)P(=O)(Nc1ccccc1)Nc1ccccc1`, the T/C reads like this: (dose: 25.0 mg/kg/injection, schedule: Q04DX003 (ip), vehicle: other) 101 % of control; (dose: 50.0 mg/kg/injection, schedule: Q04DX003 (ip), vehicle: other) 98 % of control; (dose: 100.0 mg/kg/injection, schedule: Q04DX003 (ip), vehicle: other) 103 % of control.
Regarding `C1=CC2CCC[N-]C2N1.C1=CC2CCC[N-]C2N1.[I][Pt+2][I]` (stereo not drawn), the T/C was 98 % of control under setting [2]; 101 % of control under setting [3]; 102 % of control (dose: 100.0 mg/kg/injection, schedule: Q04DX003 (ip), vehicle: saline); 107 % of control (dose: 200.0 mg/kg/injection, schedule: Q04DX003 (ip), vehicle: saline).
As to `CN(C)Cc1cc(C(C)(C)C)cc(CN(C)C)c1O`, the T/C is 98 % of control (dose: 2.5 mg/kg/injection, schedule: Q01DX009 (ip), vehicle: saline with Tween-80); 96 % of control (dose: 5.0 mg/kg/injection, schedule: Q01DX009 (ip), vehicle: saline with Tween-80); 95 % of control and 100 % of control (dose: 10.0 mg/kg/injection, schedule: Q01DX009 (ip), vehicle: saline with Tween-80).
For `CC(=O)OCC1OC(n2cc(F)c(=O)[nH]c2=O)CC1OC(C)=O` (stereo not drawn), the T/C (dose: 50.0 mg/kg/injection, schedule: Q01DX009 (ip), vehicle: other) was 123 % of control; the T/C (dose: 100.0 mg/kg/injection, schedule: Q01DX001 (ip), vehicle: other) was 93 % of control; the T/C (dose: 200.0 mg/kg/injection, schedule: Q01DX001 (ip), vehicle: other) was 110 % of control; the T/C (dose: 200.0 mg/kg/injection, schedule: Q01DX009 (ip), vehicle: other) was 117 % of control; the T/C (dose: 400.0 mg/kg/injection, schedule: Q01DX001 (ip), vehicle: other) is 102 % of control; the T/C (dose: 800.0 mg/kg/injection, schedule: Q01DX001 (ip), vehicle: other) was 119 % of control.
Consider `CC1CCC(=O)O1` (stereo not drawn), for which the T/C was 98 % of control (dose: 100.0 mg/kg/injection, schedule: Q04DX002 (ip), vehicle: saline); 98 % of control (dose: 200.0 mg/kg/injection, schedule: Q04DX002 (ip), vehicle: saline); 98 % of control (dose: 400.0 mg/kg/injection, schedule: Q04DX002 (ip), vehicle: saline).
Regarding `CCCCCCCCCCCCCCCCCC[n+]1cccc(C(=O)N2CCOCC2)c1`, the T/C is, setting by setting: (dose: 25.0 mg/kg/injection, schedule: Q01DX009 (ip), vehicle: Klucel (hydroxypropylcellulose) (HPC)) 90 % of control; (dose: 50.0 mg/kg/injection, schedule: Q01DX009 (ip), vehicle: Klucel (hydroxypropylcellulose) (HPC)) 95 % of control; (dose: 100.0 mg/kg/injection, schedule: Q01DX009 (ip), vehicle: Klucel (hydroxypropylcellulose) (HPC)) 92 % of control.
`CC(C)(C)OC(=O)Cc1ncnc2c1ncn2C1OC(CO)C(O)C1O` (stereo not drawn): the T/C was 103 % of control (dose: 12.5 mg/kg/injection, schedule: Q01DX005 (ip), vehicle: distilled water + Tween-80); 102 % of control (dose: 25.0 mg/kg/injection, schedule: Q01DX005 (ip), vehicle: distilled water + Tween-80); 96 % of control (dose: 50.0 mg/kg/injection, schedule: Q01DX005 (ip), vehicle: distilled water + Tween-80); 97 % of control (dose: 100.0 mg/kg/injection, schedule: Q01DX005 (ip), vehicle: distilled water + Tween-80); 102 % of control (dose: 200.0 mg/kg/injection, schedule: Q01DX005 (ip), vehicle: distilled water + Tween-80).
As to `O=C(N/N=C/c1cccc([N+](=O)[O-])c1)c1ccc(Cl)cc1Cl`, the T/C under setting [1] was 100 % of control, the T/C under setting [4] was 97 % of control and the T/C under setting [5] was 100 % of control.
With `CC(=O)OC(CC(=O)CC(OC(C)=O)(C(F)(F)F)C(F)(F)F)(C(F)(F)F)C(F)(F)F`, the T/C was 100 % of control (dose: 100.0 mg/kg/injection, schedule: Q01DX009 (ip), vehicle: saline); 97 % of control (dose: 200.0 mg/kg/injection, schedule: Q01DX009 (ip), vehicle: saline); 103 % of control (dose: 400.0 mg/kg/injection, schedule: Q01DX009 (ip), vehicle: saline).
`O=NN(CCCl)C(=O)NCCc1cccc[n+]1[O-]`: the T/C runs as follows: (dose: 1.56 mg/kg/injection, schedule: Q01DX001 (ip), vehicle: water) 108 % of control; (dose: 3.13 mg/kg/injection, schedule: Q01DX001 (ip), vehicle: water) 116 % of control; (dose: 6.25 mg/kg/injection, schedule: Q01DX001 (ip), vehicle: water) 121 % of control; (dose: 25.0 mg/kg/injection, schedule: Q01DX001 (ip), vehicle: water) 173 % of control; (dose: 50.0 mg/kg/injection, schedule: Q01DX001 (ip), vehicle: water) 309 % of control; (dose: 100.0 mg/kg/injection, schedule: Q01DX001 (ip), vehicle: water) 240 % of control.
Take `COc1ccc(CCNC(=O)NC(C)(C)C)cc1OC`: the T/C reads like this: under setting [1], 96 % of control; under setting [4], 100 % of control; under setting [5], 93 % of control.
As to `CC(=O)Nc1ccc(C)cc1Cl`, the T/C reads like this: (dose: 100.0 mg/kg/injection, schedule: Q01DX001 (ip), vehicle: saline with Tween-80) 96 % of control; (dose: 200.0 mg/kg/injection, schedule: Q01DX001 (ip), vehicle: saline with Tween-80) 100 % of control; (dose: 400.0 mg/kg/injection, schedule: Q01DX001 (ip), vehicle: saline with Tween-80) 93 % of control.
For the compound `Cc1ccc(C#N)c2c1CCC2`, the T/C is 103 % of control (dose: 100.0 mg/kg/injection, schedule: Q01DX001 (ip), vehicle: Klucel (hydroxypropylcellulose) (HPC)); 95 % of control (dose: 200.0 mg/kg/injection, schedule: Q01DX001 (ip), vehicle: Klucel (hydroxypropylcellulose) (HPC)); 103 % of control (dose: 400.0 mg/kg/injection, schedule: Q01DX001 (ip), vehicle: Klucel (hydroxypropylcellulose) (HPC)).
In the case of `Cc1ccc(NC(=O)N(CCCl)N=O)cc1Cl`, the T/C (dose: 13.0 mg/kg/injection, schedule: Q01DX001 (ip), vehicle: carboxymethylcellulose (CMC)) was 176 % of control.
As for `CCNC1=C(C)C(=O)C2=C(C1=O)C(COC(N)=O)C1(OC)C3NC3CN21` (stereo not drawn), the T/C is, setting by setting: (dose: 1.5 mg/kg/injection, schedule: Q01DX001 (ip), vehicle: water) 98 % of control; (dose: 3.0 mg/kg/injection, schedule: Q01DX001 (ip), vehicle: water) 110 % of control; (dose: 6.0 mg/kg/injection, schedule: Q01DX001 (ip), vehicle: water) 110 % of control; (dose: 12.0 mg/kg/injection, schedule: Q01DX001 (ip), vehicle: water) 114 % of control.
